Here are results for 5 compounds from PMC10360995, “Discovery of 3-((3-amino-1H-indazol-4-yl)ethynyl)-N-(4-((4-ethylpiperazin-1-yl)methyl)-3-(trifluoromethyl)phenyl)benzamide (AKE-72), a potent Pan-BCR-ABL inhibitor including the T315I gatekeeper resistant mutant” (Journal of Enzyme Inhibition and Medicinal Chemistry, 2023).

Read-outs that look alike come from different tables or passages of the source. A value given as a limit tells only on which side of the number the result lay.

Usually IC50 stands for the midpoint of a concentration-inhibition curve.

Assay [1] relates to SR. In words: NCI SRB anti-leukemic assay. Particulars: for GI50 / CC50: Homo sapiens, SR; for GI50: read-out: GI50 SR; for CC50: read-out: LC50 (half-maximal lethal concentration) SR; for TGI (total growth inhibition) SR: five-dose assay.
Assay [2] has as its system K-562. Briefly: NCI SRB anti-leukemic assay. To be noted: for GI50 / CC50: Homo sapiens; for GI50: K562, read-out: GI50 K-562; for CC50: K562, read-out: LC50 (half-maximal lethal concentration) K-562.
In assay [3] the test system is HL-60(TB). To be noted: for TGI (total growth inhibition) HL-60(TB): five-dose assay.
For assay [4], the system named is CCRF-CEM. Briefly: NCI SRB anti-leukemic assay. To be noted: for GI50 / CC50: Homo sapiens, CCRF-CEM; for GI50: read-out: GI50 CCRF-CEM; for CC50: read-out: LC50 (half-maximal lethal concentration) CCRF-CEM; for TGI (total growth inhibition) CCRF-CEM: five-dose assay; for GI % CCRF-CEM: single dose 10 µM.
Assay [5] relates to MOLT-4. In words: NCI SRB anti-leukemic assay. To be noted: for GI50 / CC50: Homo sapiens; for GI50: MOLT-4, read-out: GI50 MOLT-4; for CC50: MOLT-4, read-out: LC50 (half-maximal lethal concentration) MOLT-4; for TGI (total growth inhibition) MOLT-4: five-dose assay.
Assay [6] addresses T1, BCR-ABL^WT (Homo sapiens, UniProt P00519). In words: BCR-ABL WT kinase inhibition assay. The format is biochemical. To be noted: for IC50: 10-dose duplicate, 3-fold serial dilution, 10 µM ATP.
Assay [7] deals with RPMI-8226. Briefly: NCI SRB anti-leukemic assay. To be noted: for GI50 / CC50: Homo sapiens; for GI50: RPMI-8226, read-out: GI50 RPMI-8226; for CC50: RPMI-8226, read-out: LC50 (half-maximal lethal concentration) RPMI-8226; for TGI (total growth inhibition) RPMI-8226: five-dose assay; for GI % RPMI-8226: single dose 10 µM.
The test system of assay [8] is HL-60(TB). Briefly: cells. To be noted: Homo sapiens; for GI50: HL-60, read-out: GI50 HL-60(TB); for CC50: HL-60, read-out: LC50 (half-maximal lethal concentration) HL-60(TB).
Assay [9] concerns the target T1, BCR-ABL^WT. Particulars: cited from earlier work.
Assay [10] concerns K-562. More on the design: method as in PMID 32961435. To be noted: cited from earlier work.
In assay [11] the test system is CML. Particulars: cited from earlier work.
Assay [12] deals with Ba/F3 mouse pro-B cells. Briefly: Cellular proliferation assay. Format: cell-based. Particulars: BaF3, read-out: GI50 Ba/F3 (mouse pro-B cell). An excerpt: We also tested AKE-72 against BCR-ABL-positive and BCR-ABL-negative cell lines.
1.8. Cytochrome P450 Assay
The binding site was defined based

T1 sequence (P00519 whole entry): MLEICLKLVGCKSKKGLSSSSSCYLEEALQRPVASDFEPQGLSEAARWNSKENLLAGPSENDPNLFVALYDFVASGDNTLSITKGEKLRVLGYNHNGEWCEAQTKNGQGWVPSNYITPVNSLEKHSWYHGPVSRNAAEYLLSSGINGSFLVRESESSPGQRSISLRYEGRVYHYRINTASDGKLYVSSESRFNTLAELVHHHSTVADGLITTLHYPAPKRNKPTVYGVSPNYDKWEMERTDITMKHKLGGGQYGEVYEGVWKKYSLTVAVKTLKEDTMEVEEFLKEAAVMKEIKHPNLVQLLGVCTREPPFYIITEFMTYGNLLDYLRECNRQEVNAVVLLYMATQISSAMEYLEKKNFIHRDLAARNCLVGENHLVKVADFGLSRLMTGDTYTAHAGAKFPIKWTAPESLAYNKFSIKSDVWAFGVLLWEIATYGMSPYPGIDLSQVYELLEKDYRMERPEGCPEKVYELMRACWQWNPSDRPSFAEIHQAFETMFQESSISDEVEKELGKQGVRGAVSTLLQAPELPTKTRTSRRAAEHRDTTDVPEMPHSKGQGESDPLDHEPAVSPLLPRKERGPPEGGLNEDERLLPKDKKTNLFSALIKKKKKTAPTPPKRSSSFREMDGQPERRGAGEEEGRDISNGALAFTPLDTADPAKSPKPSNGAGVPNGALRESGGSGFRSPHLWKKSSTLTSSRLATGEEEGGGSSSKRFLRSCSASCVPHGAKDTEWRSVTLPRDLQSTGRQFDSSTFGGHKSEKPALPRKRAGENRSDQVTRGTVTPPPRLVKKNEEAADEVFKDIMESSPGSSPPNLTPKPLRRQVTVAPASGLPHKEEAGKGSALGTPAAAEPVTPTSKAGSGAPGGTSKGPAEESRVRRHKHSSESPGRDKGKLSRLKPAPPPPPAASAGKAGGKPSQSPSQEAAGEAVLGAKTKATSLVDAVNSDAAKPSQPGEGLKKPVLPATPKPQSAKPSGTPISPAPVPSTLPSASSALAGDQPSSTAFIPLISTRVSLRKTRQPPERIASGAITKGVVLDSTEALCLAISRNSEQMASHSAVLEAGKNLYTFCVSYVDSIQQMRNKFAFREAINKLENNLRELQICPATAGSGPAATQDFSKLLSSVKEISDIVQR

Take `CN1CCN(Cc2ccc(C(=O)Nc3cccc(C#Cc4cccc5[nH]nc(N)c45)c3)cc2C(F)(F)F)CC1` [Compound 4a]: in assay [1], the GI50 is 1100 nM, the CC50 is greater than 100 µM and the “TGI (total growth inhibition) SR” value worked out at 3.35 µM. Besides, in assay [2], the GI50 was less than 10 nM and the CC50 was determined as 6.03 µM. Also, the “TGI (total growth inhibition) K-562” value in assay [2] (five-dose assay) is 1.02 µM. Moreover, the “TGI (total growth inhibition) HL-60(TB)” value in assay [3] turned out to be 1.6 µM. Besides, in assay [4], the GI50 came out at 1220 nM, the CC50 came out at 8.3 µM, the “TGI (total growth inhibition) CCRF-CEM” value turned out to be 3.18 µM and the “GI % CCRF-CEM” value is on record as “L (lethal effect (% GI > 100))”. Further, in [5], the GI50 came out at 494 nM, the CC50 amounted to 7.57 µM and the “TGI (total growth inhibition) MOLT-4” value is on record as 2.28 µM. This compound had an IC50 in [6] of less than 0.51 nM. In addition, in assay [6] (relative to II), the “fold superior potency against BCR-ABL^WT versus lead indazole II” value is listed as greater than 300 folds. Moreover, in assay [7], the GI50 is 1220 nM, the CC50 turned out to be 9.52 µM, the “TGI (total growth inhibition) RPMI-8226” value worked out at 3.26 µM and the “GI % RPMI-8226” value was “L (lethal effect (% GI > 100))”. Further, in [8], the GI50 came out at 278 nM and the CC50 turned out to be 7.33 µM.

On to `CCN1CCN(Cc2ccc(C(=O)Nc3cccc(C#Cc4cccc5[nH]nc(N)c45)c3)cc2C(F)(F)F)CC1` [Compound 4b], for which, in assay [1], the GI50 turned out to be 1780 nM, the CC50 is greater than 100 µM and the “TGI (total growth inhibition) SR” value is listed as 4.59 µM. Besides, the GI50 in assay [2] was less than 1000 nM. For the same compound, the “TGI (total growth inhibition) K-562” value in assay [2] (five-dose assay) turned out to be 1.14 µM. Besides, the “TGI (total growth inhibition) HL-60(TB)” value in assay [3] was 2.61 µM. For the same compound, in assay [4], the GI50 amounted to 1600 nM, the CC50 turned out to be 8.16 µM, the “TGI (total growth inhibition) CCRF-CEM” value was 3.62 µM and the “GI % CCRF-CEM” value was determined as 96.4%. In assay [5], the GI50 turned out to be 1420 nM and the “TGI (total growth inhibition) MOLT-4” value was 3.57 µM. Besides, the IC50 in assay [6] came to 0.64 ± 0.0099 nM. Besides, in assay [7], the GI50 was 1590 nM, the CC50 worked out at 9.71 µM, the “TGI (total growth inhibition) RPMI-8226” value came to 3.92 µM and the “GI % RPMI-8226” value is on record as “L (lethal effect (% GI > 100))”. For the same compound, in [8], the GI50 was 593 nM.

Regarding `Nc1n[nH]c2cccc(C#Cc3cccc(NC(=O)c4ccc(N5CCOCC5)c(C(F)(F)F)c4)c3)c12` [I, reference compound], in assay [1], the GI50 is 2400 nM, the CC50 was greater than 100 µM and the “TGI (total growth inhibition) SR” value was greater than 100 µM. For the same compound, the “GI % SR” value in [1] (single dose 10 µM) was 87.42%. Also, in [2], the GI50 was less than 10 nM and the CC50 is greater than 100 µM. Also, in [2] (five-dose assay), the “TGI (total growth inhibition) K-562” value came to 13.5 µM and the “TGI K-562” value came to 13.5 µM. Moreover, the “GI % K-562” value in [2] (single dose 10 µM) was 97.96%. The “TGI (total growth inhibition) HL-60(TB)” value in assay [3] is reported as 10.5 µM. Further, the “GI % HL-60(TB)” value in assay [3] (single dose 10 µM) was determined as 99.01%. Besides, in assay [9], the IC50 is 4.6 ± 0.6 nM. Besides, the GI50 in assay [10] is less than 10 nM. Besides, in assay [4], the GI50 was 1360 nM, the CC50 was greater than 100 µM, the “TGI (total growth inhibition) CCRF-CEM” value is given as 6.58 µM and the “GI % CCRF-CEM” value amounted to 9.49%. In addition, in [5], the GI50 was 1310 nM, the CC50 is greater than 100 µM and the “TGI (total growth inhibition) MOLT-4” value was 5.71 µM. Also, the “GI % MOLT-4” value in assay [5] (single dose 10 µM) came out at 92.33%. In assay [7], the GI50 amounted to 1980 nM, the CC50 is greater than 100 µM, the “TGI (total growth inhibition) RPMI-8226” value was determined as 6.50 µM and the “GI % RPMI-8226” value is “L (lethal effect (% GI > 100))”. In [8], the GI50 worked out at 1400 nM and the CC50 was greater than 100 µM.

Consider `Cc1ccc(NC(=O)c2ccc(CN3CCN(C)CC3)cc2)cc1Nc1nccc(-c2cccnc2)n1` [Imatinib], for which the long-term success rate in assay [11] (CML, after 10 years) is recorded as 83.3%. The “overall 5-year survival rate” value in assay [11] (patients diagnosed with CML) is 89%.

`Cc1ccc(C(=O)Nc2ccc(CN3CCN(C)CC3)c(C(F)(F)F)c2)cc1C#Cc1cnc2cccnn12` [Ponatinib, reference compound]: in assay [12], the GI50 was 708 ± 37 nM.
